{"source": "patent US20170095445A1", "about": "(priority 2012, published 2017)", "origin": "cited, not measured here", "test_system": "asthma induced by sensitization and challenge with ovalbumin", "settings": "mouse, in vivo", "note": "Residues, ends and D or L forms follow the SMILES beside them.", "data": [{"smiles": "CC(=O)NC(CS)C(=O)N1CCCC1C(=O)NC(CS)C(N)=O", "note": "(stereo not drawn) [R-901, 1-(2-acetamido-3-mercaptopropanoyl)-N-(1-amino-3-mercapto-1-oxopropan-2-yl) pyrrolidine-2-carboxamide] (Ac-Cys-Pro-Cys-NH2; configuration not given here)", "values": [{"measurement": "efficacy in murine model of asthma", "value": "efficacious"}]}]}
